Several values for one entry are separate records, joined by “and”; a condition that tells them apart may be missing. Equal entries are not always repeated.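 Step 1: Grow cells in 96-well plates. Step 2: Expose to compound for 48 hours at 5 concentrations. Step 3: Interpolate endpoints linearly; if unreached, use highest concentration. GI50 = concentration required for 50% inhibition of growth. Definition used: TGI = concentration required for complete inhibition of growth.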 *1 amine or outer side, *2 acyl side, *3 side chain or, on linkers, in order; H or OH if unused. Where a SMILES comes first, the peptide text is derived from it. Bridges are numbered along the chain shown (N, C = ends). [ ]: non-standard residue; d: D form. The star is where a group is joined. Phe(3-Me) = Cc1cccc(C[C@H](N)C(=O)O)c1; NH(4-Cl-2-F-phenyl) = Fc1cc(Cl)ccc1N*; Pro(4R-Me) = C[C@H]1CN[C@H](C(=O)O)C1; Propanoyl(3-NMe2) = CN(C)CCC(=O)*; Hyp = O=C(O)[C@@H]1C[C@@H](O)CN1; aThr = C[C@H](O)[C@H](N)C(=O)O; Pip = O=C(O)[C@@H]1CCCCN1; CO = O=C([*:1])[*:2]

The source of these data is PubChem BioAssay (NCI).

Common to all, as to experiment: NCI tumour cell line growth inhibition, 48 h
The subject of experiment [1] is OVCAR-5 ovarian.
Experiment [2] relates to SNB-19 CNS.
Experiment [3] concerns HS 578T breast.
Experiment [4] relates to ACHN renal.
Experiment [5] relates to CAKI-1 renal.
Experiment [6] concerns U251 CNS.
The test system of experiment [7] is UACC-62 melanoma.
The subject of experiment [8] is SF-539 CNS.
Experiment [9] concerns COLO 205 colon.
For experiment [10], the system named is NCI/ADR-RES ovarian.

Regarding `CCN1CCN(C(=O)[C@]23CCC(C)(C)C[C@@H]2C2=CC[C@@H]4[C@@]5(C)C/C(=C/c6cccnc6)C(=O)C(C)(C)[C@@H]5CC[C@@]4(C)[C@]2(C)CC3)CC1`, the GI50 in experiment [1] is 1.56 µM; in experiment [2], 1.68 µM; in experiment [3] it was 1.83 µM; in [4] it was 2.6 µM; in experiment [5] it was 2.08 µM; in experiment [6] it was 1.58 µM. The GI50 in [7] is 1.28 µM; in experiment [8], 1.62 µM; in [9], 1.89 µM; in experiment [10], 1.57 µM. Further, the TGI in experiment [1] amounted to 3.35 µM; in experiment [2] it was 3.46 µM; in [3], 5.37 µM; in experiment [4], 10.5 µM; in [5] it was 11.8 µM; in experiment [6], 3.11 µM. Further, the TGI in experiment [7] is 2.83 µM; in experiment [8], 3 µM; in [9] it was 4.74 µM; in experiment [10] it was 3.46 µM.

Regarding `Cn1c(=S)sc2nc3ccccc3n2c1=S`, the TGI in experiment [1] was 29.1 µM; in experiment [2], 33.6 µM; in experiment [3], 95.9 µM; in experiment [4], 24 µM; in experiment [5], 39.2 µM; in experiment [6], 25.1 µM. Also, the TGI was 32.8 µM in [7], 27.1 µM in [8], 25.9 µM in experiment [9] and 44.8 µM in [10].

`O=C(O)/C=C\C(=O)Nc1ccc2c(c1)C(=O)c1cc(F)ccc1-2`: the TGI in experiment [1], in experiment [2], in [3], in experiment [4], in [5] and in experiment [6] was above 100 µM throughout. In addition, the TGI in experiment [7], in experiment [8], in [9] and in experiment [10] was above 100 µM throughout.

On to `C[C@@]1(N2C(=O)OC[C@@H]2c2ccccc2)C(=O)N([C@H](CC(=O)N2CCC(N3CCCCC3)CC2)C(=O)NCc2cccc(C(F)(F)F)c2)[C@@H]1/C=C/c1ccccc1`, for which the GI50 was 2.78 µM in experiment [1]; 2.55 µM in experiment [2]; 2.09 µM in [3]; 2.03 µM in experiment [4]; 2.3 µM in experiment [5]; 1.83 µM in experiment [6]. Besides, the GI50 was 1.85 µM in experiment [7], 1.77 µM in experiment [8], 1.8 µM in experiment [9] and 10.2 µM in experiment [10]. For the same compound, the TGI in [1] stood at 9.4 µM; in [2], 6.56 µM; in experiment [3], 4.78 µM; in [4], 4.61 µM; in experiment [5] it was 6.55 µM; in experiment [6] it was 3.43 µM. Further, the TGI was 3.78 µM in experiment [7], 3.32 µM in experiment [8], 3.58 µM in experiment [9] and 24 µM in experiment [10].

Regarding `Nc1nc2c(c3cnccc13)C(c1cccc(Cl)c1)Cc1cnccc1-2` (configuration not stated), the GI50 is 0.706 µM in experiment [1]; 0.453 µM in experiment [2]; 0.466 µM in experiment [3]; 0.761 µM in experiment [4]; 0.434 µM in experiment [5]; 0.336 µM in [6]. Besides, the GI50 in [7] is 0.371 µM; in experiment [8], 0.255 µM; in experiment [9] it was 0.296 µM; in experiment [10], 0.237 µM. For the same compound, the TGI worked out at 18.6 µM in experiment [1]; 12.4 µM in experiment [2]; 32.9 µM in experiment [3]; 11.9 µM in experiment [4]; 15.5 µM in experiment [5]; 1.08 µM in [6]. The TGI in experiment [7] was found to be 12 µM; in experiment [8], 0.752 µM; in [9] it was 0.872 µM; in experiment [10] it was 0.663 µM.

Turning to `S=C(N/N=C(/c1ccccc1)c1ccccn1)Nc1cccc(Cl)c1`, the GI50 in [1] was 0.05 µM; in experiment [2], 0.786 µM; in [3], 0.0125 µM; in experiment [5], 0.832 µM; in experiment [6], 0.0513 µM; in experiment [8] it was 1.12 µM. Moreover, the figures for the GI50 in [9] and in experiment [10] were 0.0168 µM and 0.0619 µM, respectively. Besides, the TGI in experiment [1] was 4.47 µM; in experiment [2] it was 15.3 µM; in [4] it was 4.6 µM and 5.42 µM; in experiment [5] it was 8.78 µM and 6.33 µM; in experiment [6], 2.91 µM and 4.58 µM; in [7], 0.793 µM and 2.66 µM. Besides, the TGI in [8] is 2.97 µM and 5.99 µM; in experiment [9], 2.2 µM and 21.6 µM; in experiment [10], 4.38 µM.

As to `CSc1nc2c(c(=O)[nH]1)C(c1ccc(Cl)cc1)C1=C(N2)/C(=C/c2ccc(Cl)cc2)CNC1` (configuration not stated), the GI50 in [1] is 2.53 µM; in experiment [2] it was 2.31 µM; in [3], 3.6 µM; in [4] it was 1.81 µM; in experiment [5] it was 2.11 µM; in experiment [6], 1.61 µM. Moreover, the GI50 was 2.02 µM in [7], 1.78 µM in [8], 1.91 µM in experiment [9] and 3.29 µM in experiment [10]. Besides, the TGI in experiment [1] stood at 6.25 µM; in experiment [2], 8.29 µM; in experiment [3] it was 84.1 µM; in experiment [4], 3.86 µM; in experiment [5] it was 5.09 µM; in experiment [6], 3.09 µM. Also, the TGI in experiment [7] was determined as 4.5 µM; in experiment [8], 3.5 µM; in [9], 3.53 µM; in experiment [10], 16.5 µM.

For the compound `Cc1cccc(C[C@H](NC(=O)Nc2ccc(Cl)cc2F)C(=O)N[C@@H]2C(=O)N3C[C@H](OC(=O)CCN(C)C)C[C@H]3C(=O)N3CCCC[C@H]3C(=O)N[C@@H](C)C(=O)N3C[C@H](C)C[C@H]3C(=O)O[C@H]2C)c1` ({NH(4-Cl-2-F-phenyl)-CO}-[Phe(3-Me)][aThr][Hyp](Propanoyl(3-NMe2))[Pip]A[Pro(4R-Me)]; ester 2-C), the GI50 in experiment [1] is 0.552 µM; in experiment [2] it was 0.389 µM; in experiment [3], 0.474 µM; in experiment [4], 1.75 µM; in experiment [5] it was 0.978 µM; in experiment [6], 0.441 µM. The GI50 in experiment [7] is 0.569 µM; in [8] it was 0.704 µM; in experiment [9] it was 0.355 µM; in experiment [10], 10.8 µM. In addition, the TGI in [1] came out at 2.53 µM; in [2] it was 11.5 µM; in experiment [3] it was 3.82 µM; in experiment [4], 3.49 µM; in experiment [5] it was 3.59 µM; in experiment [6], 7.27 µM. Moreover, the TGI in [7] was determined as 2.06 µM; in experiment [8], 2.17 µM; in experiment [9] it was 1.43 µM; in experiment [10] it was 28.5 µM.

Consider `CC(=O)Nc1sc2c(c1-c1nc3ccccc3s1)CNC2`, for which the GI50 in [1] was 3.05 µM; in [2], 3.49 µM; in [3], 7.05 µM; in [4], 1.28 µM; in experiment [5] it was 2.05 µM; in experiment [6] it was 4.06 µM. The GI50 was 2.76 µM in experiment [7], 2.17 µM in experiment [8], 1.88 µM in experiment [9] and 1.97 µM in [10]. Moreover, the TGI in experiment [1] was 18 µM; in [2] it was 28.9 µM; in experiment [3], 22.6 µM; in experiment [4], 7.56 µM; in [5] it was above 50 µM; in experiment [6], 30.3 µM. The TGI in [7] is 11.7 µM; in experiment [8], 8.52 µM; in experiment [9], 9.73 µM; in experiment [10], 15.7 µM.

As to `CC/C=C\C/C=C\C[C@H]1C/C=C2/C(=O)C=C[C@H]2C/C=C\CCC(=O)O1`, the GI50 in experiment [1] is 4.13 µM; in experiment [2], 5.04 µM; in [3], 4.85 µM; in [4], 2.6 µM; in experiment [5], 3.13 µM; in [6] it was 3.06 µM. The GI50 is 2.09 µM in experiment [7], 4.44 µM in [8], 3.11 µM in experiment [9] and 4.7 µM in experiment [10]. The TGI in [1] was above 14.3 µM; in experiment [2] it was above 14.3 µM; in [3] it was above 14.3 µM; in [4], 5.2 µM; in [5], 8.58 µM; in experiment [6] it was 9.71 µM. Also, the TGI in experiment [7] is 5.47 µM; in experiment [8] it was above 14.3 µM; in [9], 6.71 µM; in experiment [10], above 14.3 µM.

For the compound `COc1cc2c3c(c4c5ccccc5[nH]c4c2c(OC)c1OC)C(=O)N(CCN1CCCCC1)C3=O`, the GI50 in [1] is 1.29 µM; in experiment [2] it was 1.05 µM; in [3], 1.84 µM; in [4] it was 0.4 µM; in experiment [5] it was 0.811 µM; in [6] it was 1.12 µM. Also, the GI50 in experiment [7] was 3.88 µM; in [8], 1.38 µM; in [9], 0.849 µM; in experiment [10], 0.892 µM. Moreover, the TGI in [1] worked out at 3.05 µM; in experiment [2] it was 2.42 µM; in experiment [3], 4.59 µM; in [4] it was 1.6 µM; in experiment [5], 2.3 µM; in [6] it was 2.49 µM. Moreover, the TGI stood at 9.12 µM in experiment [7], 2.72 µM in [8], 3.25 µM in experiment [9] and 3.19 µM in [10].
